Experimental data published in patent US20030228279A1, “Compositions and methods for viral delivery” (Corixa Corporation, priority 2001, published 2003).
Entries after “also recorded” stand apart in the source; their conditions may differ. Read-outs that look alike come from different tables or passages of the source.

How the values were obtained:
[1] = in vivo; cited from earlier work
red blood cells = settings: cited from earlier work
Aqueous solubility = assay type: physicochemical; settings: at physiologic pH
From the text: Aqueous solubility is a desirable characteristic of adjuvant-active saponins and aids in vaccine formulation and efficacy (Kensil, 1996). Unlike oil-based emulsions and mineral salt adjuvants which can denature antigens and prevent protective effects, saponins are non-denaturing adjuvants due to their high aqueous solubility. Their high water solubility also obviates extensive homogenation procedures required for emulsion-type adjuvants, permitting simple mixing of aqueous adjuvant and antigen solutions prior to immunization. […] Water-soluble O-glycosides of simple hydroxybenzaldehydes (e.g., helicin (31)) not only occur in nature but readily form stable Schiff-base derivatives as well (see, The Merck Index, 12th ed.; Merck & Co., Inc.: Whitehouse Station, N.J., 1996) The synthetically simpler succinate (VI) is also useful since succinic acid constitutes a simple 4-carbon isostere for the glucuronic acid moiety and has been used to impart triterpenes with aqueous solubility (see, Gottfried and Baxendale, U.S. Pat. No. 3,070,623, 1962).

[2] = cited from earlier work
sheep red blood cells = settings: cited from earlier work

C[C@@H]1CC[C@@]2(OC1)O[C@H]1[C@@H](O)[C@H]3[C@@H]4CC[C@H]5C[C@@H](O[C@@H]6O[C@H](CO)[C@H](O[C@@H]7O[C@H](CO)[C@@H](O)[C@H](O[C@@H]8OC[C@@H](O)[C@H](O)[C@H]8O)[C@H]7O[C@@H]7O[C@H](CO)[C@H](O)[C@H](O[C@@H]8O[C@H](CO)[C@@H](O)[C@H](O)[C@H]8O)[C@H]7O)[C@H](O)[C@H]6O)[C@H](O)C[C@]5(C)[C@H]4CC[C@]3(C)[C@H]1[C@@H]2C [digitonin]
adjuvant activity [1]: adjuvant-inactive
hemolytic activity towards red blood cells (red blood cells): highly hemolytic

O=Cc1cc(OCc2ccc(C(=O)O)cc2)ccc1O [isotucaresol]
aqueous solubility (Aqueous solubility): sparingly soluble

QS-7
adjuvant activity [1]: potent adjuvants; also recorded: potent inducer of cell-mediated and humoral responses
hemolytic activity towards red blood cells (red blood cells): non-hemolytic
critical micellar concentration in phosphate buffered saline [2]: ~0.07%
critical micellar concentration in water [2]: approximately 0.06%
concentrations causing no detectable hemolysis of sheep red blood cells (sheep red blood cells): ≤ 200000 ng/mL

QS-17
adjuvant activity [1]: potent adjuvants
critical micellar concentration in phosphate buffered saline [2]: 0.03 % (w/v)
critical micellar concentration in water [2]: 0.06 % (w/v)
concentrations causing hemolysis of sheep red blood cells (sheep red blood cells): ≥ 25000 ng/mL

QS-18
adjuvant activity [1]: potent adjuvants
critical micellar concentration in phosphate buffered saline [2]: 0.02 % (w/v)
critical micellar concentration in water [2]: 0.04 % (w/v)
concentrations causing hemolysis of sheep red blood cells (sheep red blood cells): ≥ 25000 ng/mL

QS-21
adjuvant activity [1]: potent adjuvants
critical micellar concentration in phosphate buffered saline [2]: ~0.02 % (w/v)
critical micellar concentration in water [2]: about 0.03 % (w/v)
concentrations causing hemolysis of sheep red blood cells (sheep red blood cells; sheep red blood cells): ≥ 25000 ng/mL
